Assay results published in patent publication US20220370416A1, “COMPOUNDS AND METHODS FOR TARGETED DEGRADATION OF KRAS” (Arvinas Operations, Inc., priority 2020, published 2022).

Target: KRAS^G12C (Homo sapiens, UniProt P01116, G12C)
Assay: KRAS^G12C degradation by immunoblot in NCI-H358 cells
Format: cell-based
Parameters: MRTX849-VHL bifunctional compounds engage and degrade endogenous KRAS^G12C in NCI-H2030 cells; endogenous in cells; host or cells: NCI-H2030, NCI-H358, MIA PaCa-2, SW1573, NCI-H23
Conditions: NCI-H358, heterozygous KRAS^G12C
Description: NCI-H2030 (CRL-5914), MIA PaCa-2 (CRL-1420), NCI-H23 (CRL-5800), NCI-H358 (CRL-5807), and HCT-116 (CCL-247) cells were obtained from ATCC, expanded immediately, and frozen down. Vials were thawed and used within 20 passages. SW1573 cells were a gift from Arvinas and were handled in the same manner. NCI-H2030, NCI-H23, and NCI-H358 were cultured in RPMI (ATCC30-2001) supplemented with 10% FBS (Biological Industries; cat. no. S1480) and 1% Penicillin-Streptomycin (ThermoFisher; cat. no. 15140122). HCT-116 cells were maintained in high glucose DMEM (ThermoFisher; cat. no. 11965084) supplemented as above. […]
Cell lysates were clarified at 21000×g for 15 mins at 4° C. Protein levels were quantified using a 50:1 mixture of bicinchoninic acid solution (Millipore Sigma; cat. no. B9643) and 4% (w/v) copper(II) sulfate solution (Millipore Sigma; cat. no. C2284) incubated at 37° C. for 30 mins. Absorbance values at 560 nm were read on an EnVision 2101 Multilabel Reader (PerkinElmer). […]
Band intensities were quantified using BioRad's Image Lab Software. Total KRAS levels were examined by quantifying levels of both conjugated KRAS^G12C and unbound KRAS (wt or mutant) using an analysis box that spanned the two bands. This same sized box was used to quantify unbound KRAS in DMSO treated samples to account for background, except for LC-2 Epimer in FIGS. 6A and 6B. […]

KRAS^G12C, sequence (P01116 1-188 isoform P01116-2 G12C): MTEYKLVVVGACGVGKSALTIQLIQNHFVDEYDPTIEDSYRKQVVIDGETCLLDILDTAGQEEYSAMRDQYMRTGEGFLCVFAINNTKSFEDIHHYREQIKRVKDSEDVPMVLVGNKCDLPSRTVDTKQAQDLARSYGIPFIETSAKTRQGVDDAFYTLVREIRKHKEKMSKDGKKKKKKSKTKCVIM

C=C(F)C(=O)N1CCN(c2nc(OC[C@@H]3CCCN3CCCOCCC(=O)N[C@H](C(=O)N3C[C@H](O)C[C@H]3C(=O)NCc3ccc(-c4scnc4C)cc3)C(C)(C)C)nc3c2CCN(c2cccc4cccc(Cl)c24)C3)C[C@@H]1CC#N [LC-2, (2S,4R)-1-((S)-2-(3-(3-((S)-2-(((7-(8-chloronaphthalen-1-yl)-4-((S)-3-(cyanomethyl)-4-(2-fluoroacryloyl)piperazin-1-yl)-5,6,7,8-tetrahydropyrido[3,4-d]pyrimidin-2-yl)oxy)methyl)pyrrolidin-1-yl)propoxy)propanamido)-3,3-dimethylbutanoyl)-4-hydroxy-N-(4-(4-methylthiazol-5-yl)benzyl)pyrrolidine-2-carboxamide]
DC50: 520 ± 300 nM | Dmax: > 40%
